TGI data for 15 compounds are collected here from PubChem BioAssay (NCI).

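Interpolation was linear, between the two tested concentrations surrounding the appropriate level; five concentrations were tested over 48 hours in 96-well plates. TGI: total growth inhibition.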 Some results are limits rather than exact numbers.

Test systems include A498 renal; COLO 205 colon; HCT-116 colon; HOP-62 NSCLC; MOLT-4 leukemia; NCI/ADR-RES ovarian; SK-MEL-5 melanoma; SNB-19 CNS; HT29 colon; HL-60(TB) leukemia.
Common to all, as to experiment: NCI-60 cell line screen, 48 h

Turning to `C[C@]12CC[C@H]3[C@@H](CCC4=CC(=O)C=C[C@@]43O)[C@@H]1CCC2=O`, the TGI with A498 renal, with COLO 205 colon, in the test with HCT-116 colon, in the test with HOP-62 NSCLC, in the test on MOLT-4 leukemia and in the test with NCI/ADR-RES ovarian was over 100 µM each time. The TGI with SK-MEL-5 melanoma and in the test on SNB-19 CNS was over 100 µM throughout.
Regarding `CCCCC1(N=[N+]=[N-])C(=O)c2cccc3c2N(CCC3)C1=O` (stereo unspecified), the TGI with A498 renal, in the test with COLO 205 colon, in the test with HCT-116 colon, in the test with HOP-62 NSCLC, with HT29 colon and in the test on MOLT-4 leukemia was over 100 µM in each case. Besides, the TGI with NCI/ADR-RES ovarian, in the test on SK-MEL-5 melanoma and in the test with SNB-19 CNS was over 100 µM in each case.
Consider `O=S(=O)(c1cc(Cl)ccc1Cl)N1CCN(S(=O)(=O)c2cc(Cl)ccc2Cl)CC1`, for which the TGI in the test on A498 renal, with HCT-116 colon, in the test on HOP-62 NSCLC, in the test on HT29 colon, in the test on MOLT-4 leukemia and in the test on NCI/ADR-RES ovarian was over 100 µM each time. The TGI in the test on SK-MEL-5 melanoma and with SNB-19 CNS was over 100 µM throughout.
In the case of `Cc1cc(S(=O)(=O)Nc2nc3ccsc3c(=O)n2N)c(S)cc1Cl`, the TGI with COLO 205 colon, with HCT-116 colon, with HL-60(TB) leukemia, in the test on HOP-62 NSCLC, in the test on HT29 colon and in the test with MOLT-4 leukemia was over 100 µM in each case. Also, the TGI in the test with NCI/ADR-RES ovarian, in the test with SK-MEL-5 melanoma and in the test with SNB-19 CNS was over 100 µM throughout.
As for `CO/C(=N\N=C\c1ccc(Cl)cc1)c1ccncc1`, the TGI in the test with A498 renal, in the test with COLO 205 colon, in the test with HCT-116 colon, with HL-60(TB) leukemia, in the test on HOP-62 NSCLC and in the test on HT29 colon was over 100 µM in each case. Further, the TGI in the test on MOLT-4 leukemia, in the test with SK-MEL-5 melanoma and with SNB-19 CNS was over 100 µM in each case.
In the case of `O=C1COC(c2ccccc2O)=NN1CCCN1CCCC1`, the TGI in the test on A498 renal, in the test on COLO 205 colon, in the test on HCT-116 colon, in the test on HOP-62 NSCLC, in the test on HT29 colon and in the test on MOLT-4 leukemia was over 100 µM each time. Further, the TGI with NCI/ADR-RES ovarian, with SK-MEL-5 melanoma and in the test with SNB-19 CNS was over 100 µM each time.
Turning to `O=[N+]([O-])c1ccc2c(c1)nc(Cc1ccccc1)n2C[C@@H]1CCCN2CCCCC12` (stereo partly specified), the TGI was 33.2 µM in the test on A498 renal; 37.4 µM in the test on COLO 205 colon; over 100 µM with HCT-116 colon; over 100 µM with HOP-62 NSCLC; 49.2 µM in the test with HT29 colon; 47.6 µM in the test on MOLT-4 leukemia. In addition, the TGI in the test on NCI/ADR-RES ovarian was over 100 µM; in the test on SK-MEL-5 melanoma, 31.4 µM; in the test with SNB-19 CNS, over 100 µM.
In the case of `CC(=O)Nc1ccc2c(C(=O)O)c(C)c(=O)[nH]c2n1`, the TGI in the test with COLO 205 colon, in the test with HCT-116 colon, with HL-60(TB) leukemia, in the test on HT29 colon, in the test with MOLT-4 leukemia and with NCI/ADR-RES ovarian was over 100 µM throughout. Also, the TGI with SK-MEL-5 melanoma and in the test on SNB-19 CNS was over 100 µM throughout.
For `Cc1oc2nc1C(=O)NCc1nc(cs1)C(=O)N[C@H](C(C)C)c1nc(cs1)C(=O)N[C@H]2C`, the TGI in the test on A498 renal, in the test with COLO 205 colon, in the test on HCT-116 colon, with HOP-62 NSCLC, with HT29 colon and with MOLT-4 leukemia was over 100 µM each time. Besides, the TGI in the test on NCI/ADR-RES ovarian, with SK-MEL-5 melanoma and with SNB-19 CNS was over 100 µM in each case.
Turning to `CC(C)CC(=O)NC(Nc1ccc(S(=O)(=O)Nc2ncccn2)cc1)(C(F)(F)F)C(F)(F)F`, the TGI with COLO 205 colon, in the test on HCT-116 colon, in the test on HL-60(TB) leukemia, in the test with HOP-62 NSCLC, in the test with HT29 colon and in the test with MOLT-4 leukemia was over 100 µM each time. For the same compound, the TGI with NCI/ADR-RES ovarian, with SK-MEL-5 melanoma and in the test with SNB-19 CNS was over 100 µM each time.
In the case of `CC1(C)CCC[C@]2(C)[C@@H]1CC[C@@]13O[C@@H]1C1=C(CO)C(=O)O[C@]14O[C@@H]4[C@@H]23`, the TGI in the test with A498 renal was 32.9 µM; in the test with COLO 205 colon, 40.3 µM; in the test on HCT-116 colon, 26.6 µM; in the test on HOP-62 NSCLC it was 34.6 µM; with HT29 colon, 26.2 µM; with MOLT-4 leukemia it was over 100 µM. In addition, the TGI is 39.1 µM in the test on NCI/ADR-RES ovarian, 31.7 µM with SK-MEL-5 melanoma and 27.9 µM in the test with SNB-19 CNS.
Take `O=C(O)CC(NC(=O)Nc1ccc([N+](=O)[O-])cc1)C(=O)Nc1ccc([N+](=O)[O-])cc1` (stereo unspecified): the TGI with A498 renal, in the test with COLO 205 colon, in the test on HCT-116 colon, with HOP-62 NSCLC, with HT29 colon and in the test with MOLT-4 leukemia was over 100 µM in each case. For the same compound, the TGI in the test with NCI/ADR-RES ovarian, in the test on SK-MEL-5 melanoma and in the test on SNB-19 CNS was over 100 µM in each case.
For the compound `CN(C)N=Nc1ccc([N+](=O)[O-])cc1C(N)=O`, the TGI in the test on A498 renal, in the test on COLO 205 colon, in the test with HCT-116 colon, in the test on HOP-62 NSCLC, in the test on HT29 colon and in the test on MOLT-4 leukemia was over 100 µM throughout. The TGI in the test on NCI/ADR-RES ovarian, in the test on SK-MEL-5 melanoma and in the test with SNB-19 CNS was over 100 µM each time.
As to `COc1ccc2oc(S(=O)(=O)N3CC(CCl)c4ccc([N+](=O)[O-])cc43)cc2c1` (stereo unspecified), the TGI in the test on A498 renal is 2.82 µM; in the test with COLO 205 colon, 0.322 µM; with HCT-116 colon, 4.22 µM; in the test with HT29 colon, 68 µM; in the test on MOLT-4 leukemia, over 100 µM; in the test on NCI/ADR-RES ovarian, 4.03 µM. Also, the TGI was determined as 5.45 µM in the test with SK-MEL-5 melanoma and 29.2 µM with SNB-19 CNS.
For the compound `CN(C)CCCn1c(Cc2ccccc2)nc2cc(C(F)(F)F)ccc21`, the TGI in the test on A498 renal is 34.6 µM; with COLO 205 colon, 34.7 µM; in the test with HCT-116 colon it was 33.2 µM; with HOP-62 NSCLC, over 100 µM; with HT29 colon it was 42.4 µM; in the test with MOLT-4 leukemia, 48.3 µM. Also, the results for the TGI in the test on NCI/ADR-RES ovarian, in the test with SK-MEL-5 melanoma and in the test with SNB-19 CNS were over 100 µM, 33.2 µM and 86.9 µM, respectively.
